Measurements taken from PubChem BioAssay AID2060885 (Molecular Pharmacology Branch, DTP, NCI, 2025).

Test system: NCI-H23 complex spheroids with HUVEC/MSC, viability
Assay: Anticancer human tumor NCI-H23 cell line growth inhibition [RAS]
Conditions: for IC50: curve of first compound; for viability, T/C: stronger effect = lower value; active = viability on the fitted dose curve at most 10% of control; inactive = the rest
Description: RAS pathway inhibitors in Combinations in Complex Spheroids
A high-throughput screen of multi-cell type tumor spheroids was designed to identify active combinations of RAS pathway inhibitors and targeted small molecules. Complex spheroids include a stromal component modeled by human endothelial cells (HUVEC) and fibroblasts modeled by human mesenchymal stem cells (MSCs). The concentration ranges selected for each drug and investigational agent were based upon clinically achievable concentrations if the clinical Cmax of the agent was known.
Compounds. The drugs and investigational agents: abemaciclib (NSC768073), cobimetinib (NSC768068), divarasib (GDC6063, NSC841802), docetaxel (NSC628503), GDC-1971 (RLY-1971, NSC841576), gemcitabine (NSC613327), inavolisib (NSC800729), ipatasertib (NSC767898), KB-0742 (NSC834161), MRTX-1133 (NSC836407), osimertinib (NSC779217), RMC-4630 (NSC839698), RMC-6236 (NSC851965), RMC-6291 (NSC852671), Ro-3306 (NSC812927), sapanisertib (NSC764658), SN-38 (NSC673596), staurosporine (NSC755774), SY5609 (NSC837396), and tovorafenib (DAY101, NSC766906), were obtained from the National Cancer Institute (NCI) Developmental Therapeutics Program Chemical Repository. The FDA-approved anticancer drug set is available from the NCI Developmental Therapeutics Program. […] The stock solutions were prepared in dimethyl sulfoxide (DMSO, Sigma-Aldrich, St. Louis, MO, cat. D2650) at 800-fold the tested concentration and stored at -70 degrees C prior to their use. All drugs and investigational agents were tested over a range starting from a high concentration at or near the clinical Cmax and decreasing in half-log increments. If the clinical Cmax for an agent had not been determined, the highest concentration tested was 10 microM.
Cell Culture. All cells were maintained in an incubator at 37 degrees C and 5% CO2 with 95% humidity. The PDC lines were cultured according to standard operating procedures established by the NCI PDMR. All PDCs were thawed and cultured in Matrigel-coated flasks prepared with a working solution of 1X Ham's F-12 nutrient mix, without supplementation (Invitrogen, Waltham, MA, cat. 11765054), 100 U/mL penicillin-streptomycin (Invitrogen, cat. 15140122), and 2.5% Matrigel (Corning Inc., Corning, NY, cat. 354248) for the first three passages. The 362531-283-R-J2-PDC and 782815-120-R-J1-PDC lines were cultured in 6C/Colon 1B media, which includes advanced DMEM/F-12 (Thermo Fisher Scientific, cat. 12634028), 10 mM HEPES (Thermo Fisher Scientific, cat. 15630080), 1X GlutaMAX supplement (Thermo Fisher Scientific, cat. 35050061), 0.1 mg/mL primocin (InvivoGen, San Diego, CA, cat. ant-pm-2), 10% defined fetal bovine serum, heat inactivated (HyClone Laboratories Inc., Logan, UT, cat. SH30070.03HI), 50% L-WRN conditioned media (ATCC, cat. CRL-3276), 1.25 mM N-Acetyl-L-cysteine (Sigma-Aldrich, cat. A9165), 10 mM nicotinamide (Sigma-Aldrich, cat. N0636), 1X B-27 supplement (Thermo Fisher Scientific, cat. 17504044), 1X N-2 supplement (Thermo Fisher Scientific, cat. 17502048), 50 ng/mL human EGF (Thermo Fisher Scientific, cat. PHG0311), and 10 microM Y-27632 dihydrochloride (Tocris Bioscience, cat. 1254). The K12877-001-R-J1-PDC line was cultured in 6I media, which includes all 6C/Colon 1B media plus 10 ng/mL human FGF-10 (PeproTech, cat. 100-26), 1 ng/mL human FGF-2 (PeproTech, cat. 100-18B), 1 µM prostaglandin E2 (Tocris Bioscience, cat. 2296), […] hydrocortisone (Sigma-Aldrich, cat. H4001), and […] bovine insulin (Sigma-Aldrich, cat. I6634). The K86415-001-R-J1-PDC line was cultured in 6D media, which includes all 6C/Colon 1B media components minus the L-WRN conditioned media. The 485176-168-R4-J1-PDC was cultured in PANC media, which includes all 6C/Colon 1B media plus 100 ng/mL human FGF-10 (PeproTech, cat. 100-26), 500 nM SB-431542 (Selleckchem, cat. S1067), and 10 nM gastrin (Tocris Bioscience, cat. 3006). […]

[1] = second compound 0.0316 µM, first compound 0.0316 µM
[2] = second compound 0.0316 µM, first compound 0.1 µM
[3] = second compound 0.1 µM, first compound 0.0316 µM
[4] = second compound 0.1 µM, first compound 0.1 µM
[5] = second compound 0.316 µM, first compound 0.0316 µM
[6] = second compound 0.316 µM, first compound 0.1 µM
[7] = second compound 1 µM, first compound 0.0316 µM
[8] = second compound 1 µM, first compound 0.1 µM
[9] = second compound 3.16 µM, first compound 0.0316 µM
[10] = second compound 3.16 µM, first compound 0.1 µM
[11] = second compound 10 µM, first compound 0.0316 µM
[12] = second compound 10 µM, first compound 0.1 µM

CC(C)NCC(C(=O)N1CCN(c2ncnc3c2C(C)CC3O)CC1)c1ccc(Cl)cc1 (centres undefined) + C#Cc1c(F)ccc2cc(O)cc(-c3ncc4c(N5CC6CCC(C5)N6)nc(OCC56CCCN5CC(F)C6)nc4c3F)c12
< 0.0316 µM: IC50 (second compound 10 µM)
> 10 µM: IC50 (second compound 0.0316 µM) | IC50 (second compound 0.1 µM) | IC50 (second compound 0.316 µM) | IC50 (second compound 1 µM)
0.52 µM: IC50 (second compound 3.16 µM)
inactive: viability, T/C [1] 100% | viability, T/C [2] 133% | viability, T/C (second compound 0.0316 µM, first compound 0.316 µM) 89.4% | viability, T/C (second compound 0.0316 µM, first compound 1 µM) 90.5% | viability, T/C (second compound 0.0316 µM, first compound 3.16 µM) 76% | viability, T/C (second compound 0.0316 µM, first compound 10 µM) 74.2% | viability, T/C [3] 107% | viability, T/C [4] 122% | viability, T/C (second compound 0.1 µM, first compound 0.316 µM) 95.3% | viability, T/C (second compound 0.1 µM, first compound 1 µM) 91% | viability, T/C (second compound 0.1 µM, first compound 3.16 µM) 69.7% | viability, T/C (second compound 0.1 µM, first compound 10 µM) 66.6% | viability, T/C [5] 122% | viability, T/C [6] 131% | viability, T/C (second compound 0.316 µM, first compound 0.316 µM) 99.7% | viability, T/C (second compound 0.316 µM, first compound 1 µM) 84.4% | viability, T/C (second compound 0.316 µM, first compound 3.16 µM) 70.2% | viability, T/C (second compound 0.316 µM, first compound 10 µM) 55.7% | viability, T/C [7] 108% | viability, T/C [8] 101% | viability, T/C (second compound 1 µM, first compound 0.316 µM) 73.6% | viability, T/C (second compound 1 µM, first compound 1 µM) 66.7% | viability, T/C (second compound 1 µM, first compound 3.16 µM) 56.1% | viability, T/C (second compound 1 µM, first compound 10 µM) 49% | viability, T/C [9] 68.6% | viability, T/C [10] 69% | viability, T/C (second compound 3.16 µM, first compound 0.316 µM) 51.6% | viability, T/C (second compound 3.16 µM, first compound 1 µM) 44.9% | viability, T/C (second compound 3.16 µM, first compound 3.16 µM) 37.9% | viability, T/C (second compound 3.16 µM, first compound 10 µM) 32.6% | viability, T/C [11] 38.4% | viability, T/C [12] 40.9% | viability, T/C (second compound 10 µM, first compound 0.316 µM) 34.1% | viability, T/C (second compound 10 µM, first compound 1 µM) 26.1% | viability, T/C (second compound 10 µM, first compound 3.16 µM) 22.8% | viability, T/C (second compound 10 µM, first compound 10 µM) 18.5%

CC(C)n1nc(-c2ccc3oc(N)nc3c2)c2c(N)ncnc21 + C#Cc1c(F)ccc2cc(O)cc(-c3ncc4c(N5CC6CCC(C5)N6)nc(OCC56CCCN5CC(F)C6)nc4c3F)c12
0.0148 µM: IC50 (second compound 1 µM)
0.00286 µM: IC50 (second compound 3.16 µM)
0.0222 µM: IC50 (second compound 0.316 µM)
inactive: viability, T/C (second compound 0.0316 µM, first compound 0.000316 µM) 105% | viability, T/C (second compound 0.0316 µM, first compound 0.001 µM) 114% | viability, T/C (second compound 0.0316 µM, first compound 0.00316 µM) 89.6% | viability, T/C (second compound 0.0316 µM, first compound 0.01 µM) 73.9% | viability, T/C [1] 51.4% | viability, T/C [2] 47.1% | viability, T/C (second compound 0.1 µM, first compound 0.000316 µM) 108% | viability, T/C (second compound 0.1 µM, first compound 0.001 µM) 113% | viability, T/C (second compound 0.1 µM, first compound 0.00316 µM) 84.7% | viability, T/C (second compound 0.1 µM, first compound 0.01 µM) 71.4% | viability, T/C [3] 53.2% | viability, T/C [4] 42.8% | viability, T/C (second compound 0.316 µM, first compound 0.000316 µM) 104% | viability, T/C (second compound 0.316 µM, first compound 0.001 µM) 106% | viability, T/C (second compound 0.316 µM, first compound 0.00316 µM) 83.7% | viability, T/C (second compound 0.316 µM, first compound 0.01 µM) 61.6% | viability, T/C [5] 46.1% | viability, T/C [6] 39.4% | viability, T/C (second compound 1 µM, first compound 0.000316 µM) 83.6% | viability, T/C (second compound 1 µM, first compound 0.001 µM) 93.1% | viability, T/C (second compound 1 µM, first compound 0.00316 µM) 72.8% | viability, T/C (second compound 1 µM, first compound 0.01 µM) 56.4% | viability, T/C [7] 39.6% | viability, T/C [8] 32.3% | viability, T/C (second compound 3.16 µM, first compound 0.000316 µM) 56.4% | viability, T/C (second compound 3.16 µM, first compound 0.001 µM) 60.4% | viability, T/C (second compound 3.16 µM, first compound 0.00316 µM) 48.4% | viability, T/C (second compound 3.16 µM, first compound 0.01 µM) 38.3% | viability, T/C [9] 36.8% | viability, T/C [10] 22.9% | viability, T/C (second compound 10 µM, first compound 0.000316 µM) 38.8% | viability, T/C (second compound 10 µM, first compound 0.001 µM) 38.6% | viability, T/C (second compound 10 µM, first compound 0.00316 µM) 28.8% | viability, T/C (second compound 10 µM, first compound 0.01 µM) 26.9% | viability, T/C [11] 24.1% | viability, T/C [12] 17%
< 0.000316 µM: IC50 (second compound 10 µM)
0.0432 µM: IC50 (second compound 0.1 µM)
0.0539 µM: IC50 (second compound 0.0316 µM)
